Measured values reported in patent US20120022142A1, “RNA Interference Mediated Inhibition of Signal Transducer and Activator of Transcription 1 (STAT1) Gene Expression Using Short Interfering Nucleic Acid (siNA)” (Merck Sharp & Dohme Corp., priority 2009, published 2012).
[invAb] = inverted abasic unit; m = 2'-O-methyl; r = 2'-OH (RNA); f = 2'-fluoro

How the values were obtained:
[1] = system: STAT1 mRNA; assay: Efficacy (% KD) and potency (IC50) of STAT1 mRNA knockdown of siNA leads in A549 cells; type: cell-based, human; conditions: for Human (A549) avg % KD: STAT1 mRNA, 30 nM siNA, at least three experiments
Procedure: A549 cells were plated in 6-well plates at final counts of 70,000 cells/well in 2 ml of complete growth media (Ham's F12, Cellgro Cat# 10-080-CV+10% FBS). Transfection was performed using 2.5 uL of RNAiMax (Invitrogen Cat# 13778-150) per well. Final concentration of siNAs was 30, 3, 0.3, 0.03, 0.003, and 0.0003 nM done in duplicate. The siNAs were incubated for 24-72 hours. The duplicate samples were pooled to prepare protein lysates and RNA using the “PARIS” Protein and RNA Isolation System from Ambion, Cat# 1921. The total protein in the lysates was measured using a Bradford Dye Reagent (Bio-Rad, Cat# 500-0205).SDS-PAGE/Western Blotting was performed on the on the protein samples and RT-PCR on the RNA samples.
(§1) A series of probes and primers were used to detect the various mRNA transcripts of the genes of β-Actin (human cell line only), and of STAT1 and GAPDH in mouse and human cell lines. All Taqman probes and primers for the experiments here-in described were supplied as pre-validated sets by Applied Biosystems, Inc. (see Table 2).
(§2) The assays were performed on an ABI 7900 instrument, according to the manufacturer's instructions.
(§3) The expression level of the gene of interest and % knock-down was calculated using Comparative Ct method: […]
(§4) All calculations of IC50s were performed using SigmaPlot 10.0 software. The data were analyzed using the sigmoidal dose-response (variable slope) equation for simple ligand binding. In all of the calculations of the % knock-down, the calculation was made relative to the normalized level of expression of the gene of interest in the samples treated with the non-targeting control (Ctrl siNA) unless otherwise indicated.
(§5) Certain siNAs were further analyzed for efficacy in human A549 cells and mouse NIH3T3 cells. Percent KD/reduction is represented as mean±S.D. IC50 is represented as mean±S.D. The date is summarized from at least three separate experiments and within each experiment, the data point is calculated from an n=2. The final concentration of siNA used was 30 nM.

[2] = system: STAT1 mRNA; assay: Efficacy (% KD) and potency (IC50) of STAT1 mRNA knockdown of siNA leads in NIH3T3 cells; type: cell-based, mouse; conditions: mean ± S.D.; for IC50: STAT1 mRNA knockdown, read-out: Mouse (NIH3T3) IC50; for Mouse (NIH3T3) avg % KD: STAT1 mRNA, 30 nM siNA, at least three experiments
Procedure: (§6) NIH 3T3 (mouse; ATCC cat# CRL-1658): Cells were cultured at 37° C. in the presence of 5% CO2 and grown in Dulbecco's modified Eagle's medium (DMEM) with 4 mM L-glutamine adjusted to contain 1.5 g/L sodium bicarbonate and 4.5 g/L glucose and supplemented with fetal bovine serum at a final concentration of 10%, 100 μg/mL of streptomycin, and 100 U/mL penicillin.
as §1, §2, §3, §4, §5

[3] = system: STAT1 mouse mRNA; assay: Initial screen of siNAs: STAT1 mRNA knock-down in NIH 3T3 cells (96-well transfection, Taqman RT-PCR); type: cell-based; conditions: 10 nM siNA, 24 hrs, normalized against GAPDH, average of 2 experiments
Procedure: as §6
Cells were plated in all wells of a tissue-culture treated, 96-well plate at a final count of 5000 cells/well in 100 μL of the appropriate culture media. The cells were cultured for 24 hours after plating at 37° C. in the presence of 5% CO2.
After 24 hours, complexes containing siNA and RNAiMax were created as follows: A solution of RNAiMax diluted 33-fold in OPTI-MEM was prepared. In parallel, solutions of the siNAs for testing were prepared to a final concentration of 120 nM in OPTI-MEM. After incubation of RNAiMax/OPTI-MEM solution at room temperature for 5 min, an equal volume of the siNA solution and the RNAiMax solution were added together for each of the siNAs.
This solution was incubated at room temperature for 20 minutes. After incubation, 20 uL of the solution was added to each of the relevant wells. The final concentration of siNA in each well was 10 nM and the final volume of RNAiMax in each well was 0.3 ul.
The time of incubation with the RNAiMax-siNA complexes was 24 hours and there was no change in media between transfection and harvesting, unless otherwise indicated.
RNA was extracted from a 96-well plate using the TaqMan® Gene Expression Cells-to-CT™ Kit (Cat# 4399002) with a modified protocol. Briefly, a 60 uL (1 plate) or 110 uL (2 plates) of the Lysis Solution with DNase I was dispensed into each well of the Lysis Buffer Plate (twin.tec full skirt plate). The lysis buffer and stop plates were stored at 4° C. until the cells were washed.
The culture medium was aspirated and discarded from the wells of the culture plate. 50 uL of chilled DPBS was added to each well, then aspirated and discarded. The lysis was performed automatically using a BioMek FX instrument and method. After the Biomek method was completed, the lysis plate was incubated for 2 min at room temperature. The lysis plate can be stored for 2 hours at 4° C., or at −20° C. or −80° C. for two months.
Each well of the reverse transcription plate required 10 uL of 2× reverse transcriptase Buffer, 1 uL of 20× reverse transcription enzyme and 2 uL of nuclease-free water. The reverse transcription master mix was prepared by mixing 2× reverse transcription buffer, 20× reverse transcription enzyme mix, and nuclease-free water. 13 uL of the reverse transcription master mix was dispensed into each well of the reverse transcription plate (semi-skirted). A separate reverse transcription plate was prepared for each cell plate. The plate was loaded onto a Biomek NX or Biomek FX Dual-96 and the Biomek method was run. The program is programmed to automatically added 7 uL of lysate from the cell lysis procedure described above into each well of the reverse transcription plate. The plate is sealed and spun on a centrifuge (1000 rpm for 30 seconds) to settle the contents to the bottom of the reverse transcription plate. The plate is placed in a thermocycler at 37° C. for 60 min, 95° C. for 5 min, and 4° C. until the plate is removed from the thermocycler. Upon removal, if not used immediately, the plate was frozen at −20° C.
as §1
The assays were performed on an ABI 7900 instrument, according to the manufacturer's instructions. […]

[4] = A549 cells, Table 5, read-out: IC50 vs. STAT1 mRNA
[5] = STAT1 mRNA knockdown, mean ± S.D., read-out: Human (A549) IC50

Substance	IC50 [1, 4]	IC50 [1, 5]	Human (A549) avg % KD ([1]; mean ± S.D.)	IC50 [2]	Mouse (NIH3T3) avg % KD [2]	% KD Mouse [3]
25368-DC: STAT1 siNA duplex, human target site 782; modified strands SEQ ID NO: 73 and 74 (chain 1 GUAAAGUCAGAAAUGUGAATT; chain 2 UUCACAUUUCUGACUUUACUU; chain 1: DNA at AGT, 2'-fluoro at CU, [invAb] at 5' end, 3' end, backbone not given here; chain 2: sugars from the 5' end rrrmfmfffffmmffffmfmm, backbone not given here)	0.097 ± 0.018 nM	0.01 ± 0.0064 nM	89.1 ± 1.8%	0.072 ± 0.023 nM	89.9 ± 6.0%	87%
25351-DC: STAT1 siNA duplex, human target site 2249; modified strands SEQ ID NO: 39 and 40 (chain 1 CCUACACGAAGAAAGAACUTT; chain 2 AGUUCUUUCUUCGUGUAGGUU; chain 1: DNA at AGT, 2'-fluoro at CU, [invAb] at 5' end, 3' end, backbone not given here; chain 2: sugars from the 5' end rrrfffffffffmfmfmmmmm, backbone not given here)	0.025 ± 0.009 nM	0.012 ± 0.002 nM	91.7 ± 0.1%	0.248 ± 0.086 nM	85.1 ± 3.5%	82%
25367-DC: STAT1 siNA duplex, human target site 966; modified strands SEQ ID NO: 71 and 72 (chain 1 GCUUGACAAUAAGAGAAAGTT; chain 2 CUUUCUCUUAUUGUCAAGCUU; chain 1: DNA at AGT, 2'-fluoro at CU, [invAb] at 5' end, 3' end, backbone not given here; chain 2: sugars from the 5' end rrrffffffmffmffmmmfmm, backbone not given here)	0.01 ± 0.0064 nM	0.032 ± 0.014 nM	88.6 ± 1.1%	0.16 ± 0.034 nM	84.6 ± 2.6%	82%
25372-DC: STAT1 siNA duplex, human target site 968; modified strands SEQ ID NO: 81 and 82 (chain 1 UUGACAAUAAGAGAAAGGATT; chain 2 UCCUUUCUCUUAUUGUCAAUU; chain 1: DNA at AGT, 2'-fluoro at CU, [invAb] at 5' end, 3' end, backbone not given here; chain 2: sugars from the 5' end rrrffffffffmffmffmmmm, backbone not given here)	0.032 ± 0.014 nM	0.025 ± 0.009 nM	86.0 ± 2.0%	0.182 ± 0.051 nM	87.3 ± 7.2%	81%
25369-DC: STAT1 siNA duplex, human target site 602; modified strands SEQ ID NO: 75 and 76 (chain 1 GGAAAAGCAAGCGUAAUCUTT; chain 2 AGAUUACGCUUGCUUUUCCUU; chain 1: DNA at AGT, 2'-fluoro at CU, [invAb] at 5' end, 3' end, backbone not given here; chain 2: sugars from the 5' end rrrffmfmfffmfffffffmm, backbone not given here)	0.012 ± 0.002 nM	0.097 ± 0.018 nM	88.8 ± 3.1%	0.58 ± 0.109 nM	60.8 ± 3.5%	66%
